Measured values: patent publication US11491117B2, “Compounds for the prevention and treatment of glucose intolerance related conditions and obesity” (SORBONNE UNIVERSITÉ, priority 2017, dated 2022)

Columns and labels:
[1] = test system: Goto-Kakizaki (GK) rats; assay: Chronic subcutaneous infusion in Goto-Kakizaki rats: body and organ weight, glucose homeostasis (IPGTT), insulin secretion; type: in vivo, rat
Experimental: The animal experiments on rats were conducted on diabetic adult 8 months aged male Goto-Kakizaki (GK) rats from the local colony of Paris-Diderot University (Paris, France). GK strain derived after backcrossing of animals selected at the upper limit of normal distribution for glucose tolerance. Characteristics of GK rats have been previously described. Rats had free access to a control carbohydrate diet (CHD) (D 12450Ki, Research diets, NJ) and were kept on 12 h light/dark cycle. […] Rats were killed by decapitation and blood and organs collected for measurement of metabolic parameters, islet isolation for quantitative RT-PCR analysis and immunohistochemistry. […] After three weeks of metabolite treatment (i.e. four weeks of HFD feeding) an intra-peritoneal glucose tolerance test (IPGTT) (2 g/kg) was performed in conscious mice following an overnight fast. Blood was collected from the tail vein before glucose injection and 15, 30, 60 and 120 minutes afterwards. Additional blood samples were collected during the IPGTT in GK rats 15, 90, 180 and 240 minutes after glucose injection. Blood glucose levels were determined using an Accu-Check® Performa (Roche Diagnostics, Meylan, France). Additional blood samples were collected at base line and 30 minutes after glucose injection in Microvette® CB 300 Lithium Heparin ([…], France). Plasma was separated by centrifugation and stored at -80° C. until insulin radioimmunoassay. Evaluation of overall glucose tolerance was obtained from cumulative glycemia (GCum) and the ΔG, which were determined by the total increment of plasma glucose values during the IPGTT (GCum) and the cumulative glycemia during the test above baseline (ΔG). After six weeks of metabolite treatment, mice were killed by decapitation and organ were dissected and weighed. Half of liver, fat and pancreas samples were snap frozen in liquid nitrogen and stored at -80° C. for molecular studies, and the second half processed for histopathology. All procedures were authorized following review by the institutional ethic committee and carried out under national license condition (Ref 00486.02). Blood glucose was measured using an Accu-Check® Performa (Roche Diagnostics, Meylan, France) and plasma insulin was determined using Insulin ELISA kits (Mercodia, Uppsala, Sweden). For determination of liver triglycerides, liver samples (100 mg) were homogenized and incubated in NonidetP-40 (5%) and supernatants containing triglycerides were collected. Triglycerides concentration was quantified in the supernatant fraction using a colorimetric assay (ab65336, Abcam, Paris, France) by measuring OD at 570 nm. The ratio NAD/NADH was determined using a quantification kit (MAK037; […] Samples were homogenized in the extraction buffer and clarified by centrifugation. Supernatant was deproteinized by filtration through a 10-kDa cutoff spin filter (Millipore SAS, Molsheim, France). The assay was then performed according to the manufacturer's instructions.

[2] = test system: C57BL/6J mice fed CHD or HFD; assay: Histology and immunohistochemistry of liver and pancreas of chronically treated mice; type: in vivo, mouse; details: for islet size (immunohistochemistry) / insulin positive area: mean±SEM
Experimental: Tissues were drop-fixed in 4% paraformaldehyde (Sigma-Aldrich, Saint Quentin Fallavier, France) immediately after collection and put through an automated carousel processor for dehydration, clearing, and paraffin embedding (Leica, Nanterre, France). Sections were prepared for liver (6 μm), pancreas (6 μm) and adipose tissue ([…]) and mounted on slides (DPX polymerizing mountant, Sigma-Aldrich, Saint Quentin Fallavier, France). Hematoxylin and Eosin (H&E) was used to evaluate tissue morphology. Epitope-specific antibodies were used for immunohistochemistry detection of insulin on pancreas sections (Dako, Saint Aubin, France).
For Oil redO (ORO), livers were snap frozen in OCT (VWR, Fontenay-sous-Bois, France) and cut into 7-μm sections using a cryostat. Sections were rehydrated in PBS (Sigma-Aldrich, St Quentin, France) and incubated with an ORO staining solution (Sigma Aldrich, St Quentin, France). Slides were washed in deionized water and mounted with Vectashield mounting medium (Laboratoires Eurobio Abcys, LesUlis, France).
For immunohistochemistry analysis, pancreas sections were quenched with 3% H2O2, washed with TBS+0.1% (v/v) Tween-20 (or 0.05% v/v Triton X-100 for nuclear epitopes), blocked with TBS+3% (w/v) BSA and incubated with diluted primary antibodies and then with HRP-conjugated secondary antibody (Bio-Rad, Marnes-la-Coquette, France). Chromogenic detection was carried out with the DAB chromogen kit (Dako, Saint Aubin, France). Nuclei were counterstained with hematoxylin. Quantitative expression of all immunostainings was performed using positive pixels algorithm (Indica Labs, Corrales, N. Mex.). For double immunostaining and immunofluorescence analyses, pancreas sections were stained for insulin as described above and co-stained with i) primary Anti-Ki67 antibody (ab15580, Abcam, Paris, France) and secondary Donkey Anti-Goat IgG H&L conjugated to Alexa Fluor® 568 (ab175704, Abcam, Paris, France) ii) primary Mouse/Rat CD31/PECAM-1 Antibody (AF3628, Minneapolis, USA) and secondary Goat anti-Rabbit IgG H&L conjugated to Alexa Fluor 488 (A-11034, ThermoFisher, Villebon, France). Results are expressed as percentage of positive pixels, within islets where indicated. The quantification method is an automated observer-independent process based on section scanning and application of publicly available algorithms. Each biological replicate represents one slide per animal mounted with at least 3 tissue sections, representing 3 technical replicates, the mean and variance of which is presented as the result per biological replicate. All images were acquired on an Axiovert 200M microscope (Zeiss, Marly-le-Roi, France).

Cc1ccc(O)cc1 [4-cresol]
fasting glycemia [1]: significant reduction
glycemic response to the glucose challenge throughout the IPGTT (glucose intolerance) [1]: decrease
cumulative glycemia ([1]; IPGTT): significant drop
increase in pancreas weight ([1]; P<0.01): +94.6%
BMI ([1]; chronic administration 6 weeks): no effect
body weight ([1]; chronic administration 6 weeks): no effect
fasting insulinemia ([1]; vs saline): significantly more elevated
glucose-induced insulin secretion during the IPGTT ([1]; vs saline): significantly more elevated
islet size (immunohistochemistry) ([2]; CHD fed mice): 153.60±14.18
number of proliferative nuclei (KI67) in pancreas ([2]; CHD-fed mice): significantly increased
reduction in liver fat content (Oil-Red-O staining) ([2]; HFD fed mice, P=0.009, to the level of saline-treated CHD-fed controls): 40.7%
islet size (immunohistochemistry) ([2]; HFD fed mice): 170.00±12.56
number of proliferative nuclei (KI67) in pancreas ([2]; HFD-fed mice): remained elevated
CD31 positive cells (pancreas vascularization) ([2]; both groups fed CHD or HFD): further significant increase
liver fat content (Oil-Red-O staining) ([2]; mice fed CHD): reduced
islet density ([2]; mice fed CHD or HFD, significant only in CHD-fed mice): strong increase
insulin positive area ([2]; mice fed CHD, statistically significant): 185.40±22.95
insulin positive area ([2]; mice fed HFD, not statistically significant): 171.90±21.62
